The target in experiment [1] is T1, EGFR (T790M/L858R) (Homo sapiens, UniProt P00533, L858R/T790M).
T1 construct: purchased Carna Biosciences, Inc
In words: EGFR (T790M/L858R) kinase inhibitory activity. The class given is biochemical. The note with it: for IC50: ATP 1 μM, 25° C. for 120 minutes. As for the experimental part:
The inhibitory activities of the compounds of the present invention against EGFR (T790M/L858R) kinase activity were measured.
(§1) Among the materials of the inhibitory activity measurement, the substrate peptide and the kinase protein were obtained as follows. A peptide with biotinylated N-terminus (biotin-EEPLYWSFPAKKK) was synthesized with reference to FL-Peptide 22, a reagent for LabChip® series of PerkinElmer, Inc. For the kinase protein, a purified recombinant human EGFR (T790M/L858R) protein of Carna Biosciences, Inc. was purchased.
(§2) The inhibitory activity measurement was performed as follows. The compounds of the present invention were individually dissolved in dimethyl sulfoxide (DMSO), and serial dilutions of these compounds were prepared using DMSO. Subsequently, a solution containing the substrate peptide (final concentration: 250 nM), magnesium chloride (final concentration: 10 mM), manganese chloride (final concentration: 10 mM), and ATP (final concentration: 1 μM) in a buffer solution for kinase reaction (Carna Biosciences, Inc.) was mixed with the dilutions of the compounds (final concentration of DMSO upon kinase reaction: 2.5%) or DMSO (final concentration: 2.5%). EGFR (T790M/L858R) protein was further added thereto, and the mixtures were incubated at 25° C. for 120 minutes to carry out a kinase reaction. EDTA was added thereto to a final concentration of 24 mM to thereby terminate the reaction. A phosphorylated thyrosine detection solution containing europium (Eu)-labeled anti-phosphorylated tyrosine antibody PT66 (PerkinElmer, Inc.) and SureLight APC-SA (PerkinElmer, Inc.) was added to the reaction mixtures, and the mixtures were allowed to stand at room temperature for 2 hours or more. For the background, a sample to which EDTA was added before addition of EGFR (T790M/L858R) protein was incubated at 25° C. for 120 minutes, using DMSO instead of the DMSO solution of the compound. The detection solution was also added to this sample, and the mixture was allowed to stand for 2 hours or more. Finally, for all of the test samples, the amount of fluorescence at the time of irradiation of excitation light having a wavelength of 337 nm was measured at dual wavelengths of 620 nm and 665 nm by PHERAstar FS (BMG LABTECH), and a ratio of the fluorescence amounts at the two wavelengths was obtained as data.
(§3) Based on the above rates, phosphorylation inhibition rates (%) were calculated for the samples to which various concentrations of the compound solutions were added. Finally, the obtained reaction inhibition rates (%) at the respective concentrations were plotted for each compound, and the IC50 value (nM), which is a compound concentration at which phosphorylation by EGFR (T790M/L858R) is inhibited by 50%, was determined using XLfit curve-fitting software (IDBS).

The subject of experiment [2] is A431 expressing EGFR (WT). In words: Growth inhibition, A431 expressing EGFR (WT). It counts as cell-based. The note with it: Homo sapiens, A-431, 72 h; cultured three days, CellTiter-Glo. As for the experimental part:
(§4) (1) A human […] lung cancer cell line NCI-H1975 expressing EGFR (T790M/L858R), (2) a human non-small cell lung cancer cell line HCC827 expressing EGFR (d746-750), and (3) a human epithelioid cancer cell line A431 expressing EGFR (WT) were each suspended in complete growth medium recommended by ATCC. The cell suspensions were seeded in each well of a 384-well flat microplate or a 96-well flat plate, and cultured in an incubator containing 5% carbon dioxide gas at 37° C. for one day. Each compound of the present invention was dissolved in DMSO, and serial dilutions of the test compound were prepared using DMSO (to a concentration 500 times the final concentration). The DMSO solution of the test compound or DMSO was diluted with complete growth medium, and the resulting solution was added to each well of the cell culture plate so that the final concentration of DMSO was 0.2%. Then, the cells were cultured in an incubator containing 5% carbon dioxide gas at 37° C. for three days. The number of cells was measured before the addition of the DMSO solution of the test compound, as well as after addition and culture by using a CellTiter-Glo Assay® (produced by Promega) according to a protocol recommended by Promega.
(§5) For each cell, the cell growth inhibition rates of the wells to which the test compounds at various concentrations were added were calculated by the following formula. Then, the obtained inhibition rates (%) at the respective concentrations were plotted for each test compound, and the GI50 value (nM), which is a test compound concentration at which the cell growth can be inhibited by 50%, was determined using XLfit curve-fitting software (IDBS). • Cell Growth Inhibition Rate (%)=(C−T)/(C−CO)×100 • T: Luminescence intensity of well cultured for three days after addition of the test compound solution • C: Luminescence intensity of well cultured for three days after addition of DMSO • C0: Luminescence intensity of well before addition of the test compound solution
Background: Cellular ATP, detected with luciferase, serves as a proxy for viable cell number.

Experiment [3] has as its target T2, EGFR (WT) (Homo sapiens, UniProt P00533).
T2 construct: expressing a cytoplasmic domain of human EGFR (WT) with its N-terminus fused to a FLAG tag; FLAG (N); made in house; host or cells: insect Sf9 cells, baculovirus expression system
In words: EGFR (WT) kinase inhibitory activity. It counts as biochemical. The note with it: substrate peptide 500 nM. As for the experimental part: as §1, §2, §3
The inhibitory activities of the compounds of the present invention against EGFR (WT) kinase activity were measured.
The materials, the measurement method, and the data analysis method were substantially the same as those shown in the above description regarding “Measurement of EGFR (T790M/L858R) Kinase Inhibitory Activity,” except that a kinase protein prepared by expressing a cytoplasmic domain of human EGFR (WT) with its N-terminus fused to a FLAG tag in insect Sf9 cells using a baculovirus expression system and then purifying it with anti-FLAG antibody agarose (Sigma-Aldrich) was used as the kinase protein, the final concentration of the substrate peptide was 500 nM, and the final concentration of ATP was […]. Finally, the IC50 value (nM) of each compound with respect to EGFR (WT) was determined by data analysis.

The subject of experiment [4] is NCI-H1975 expressing EGFR (T790M/L858R). In words: Growth inhibition, NCI-H1975 expressing EGFR (T790M/L858R). It counts as cell-based. To be noted: Homo sapiens, NCI-H1975, 72 h; cultured three days, CellTiter-Glo. As for the experimental part: as §4, §5
The target of experiment [5] is T3, EGFR (L858R) (Homo sapiens, UniProt P00533, L858R).
T3 construct: purchased Carna Biosciences, Inc
Put plainly: EGFR (L858R) kinase inhibitory activity. It counts as biochemical. The note with it: ATP 4 μM. As for the experimental part:
as §1, §2, §3
The inhibitory activities of the compounds of the present invention against EGFR (L858R) kinase activity were measured.
The materials, the measurement method, and the data analysis method were substantially the same as those shown in the above description regarding “Measurement of EGFR (T790M/L858R) Kinase Inhibitory Activity,” except that a purified recombinant human EGFR (L858R) protein purchased from Carna Biosciences, Inc. was used as the kinase protein, and the measurement was performed with ATP at a final concentration of 4 μM. Finally, the IC50 value (nM) of each compound with respect to EGFR (L858R) was determined by data analysis.

In experiment [6] the test system is HCC827 expressing EGFR (d746-750). Put plainly: Growth inhibition, HCC827 expressing EGFR (d746-750). To be noted: Homo sapiens, HCC827, 72 h; cultured three days, CellTiter-Glo. It counts as cell-based. As for the experimental part: as §4, §5
Experiment [7] has as its target T4, EGFR (d746-750) (Homo sapiens, UniProt P00533, DEL746-750).
T4 construct: purchased Carna Biosciences, Inc
In words: EGFR (d746-750) kinase inhibitory activity. It counts as biochemical. To be noted: ATP 5 μM, kinase reaction 90 minutes. As for the experimental part: as §1, §2, §3
The inhibitory activities of the compounds of the present invention against EGFR (d746-750) kinase activity were measured.
The materials, the measurement method, and the data analysis method were substantially the same as those shown in the above description regarding “Measurement of EGFR (T790M/L858R) Kinase Inhibitory Activity,” except that a purified recombinant human EGFR (d746-750) protein purchased from Carna Biosciences, Inc. was used as the kinase protein, the measurement was performed with ATP at a final concentration of 5 μM, and the incubation for the kinase reaction was performed for 90 minutes. Finally, the IC50 value (nM) of each compound with respect to EGFR (d746-750) was determined by data analysis.

For experiment [8], the target named is T5, EGFR (d746-750/T790M) (Homo sapiens, UniProt P00533, DEL746-750/T790M).
T5 construct: purchased Carna Biosciences, Inc
Put plainly: EGFR (d746-750/T790M) kinase inhibitory activity. It counts as biochemical. The note with it: ATP 1.5 μM. As for the experimental part: as §1, §2, §3
The inhibitory activities of the compounds of the present invention against EGFR (d746-750/T790M) kinase activity were measured.
The materials, the measurement method, and the data analysis method were substantially the same as those shown in the above description regarding “Measurement of EGFR (T790M/L858R) Kinase Inhibitory Activity,” except that a purified recombinant human EGFR (d746-750/T790M) protein purchased from Carna Biosciences, Inc. was used as the kinase protein, and the measurement was performed with an ATP final concentration of 1.5 μM. Finally, the IC50 value (nM) of each compound with respect to EGFR (d746-750/T790M) was determined by data analysis.

T1 sequence (P00533 25-1210 T790M/L858R): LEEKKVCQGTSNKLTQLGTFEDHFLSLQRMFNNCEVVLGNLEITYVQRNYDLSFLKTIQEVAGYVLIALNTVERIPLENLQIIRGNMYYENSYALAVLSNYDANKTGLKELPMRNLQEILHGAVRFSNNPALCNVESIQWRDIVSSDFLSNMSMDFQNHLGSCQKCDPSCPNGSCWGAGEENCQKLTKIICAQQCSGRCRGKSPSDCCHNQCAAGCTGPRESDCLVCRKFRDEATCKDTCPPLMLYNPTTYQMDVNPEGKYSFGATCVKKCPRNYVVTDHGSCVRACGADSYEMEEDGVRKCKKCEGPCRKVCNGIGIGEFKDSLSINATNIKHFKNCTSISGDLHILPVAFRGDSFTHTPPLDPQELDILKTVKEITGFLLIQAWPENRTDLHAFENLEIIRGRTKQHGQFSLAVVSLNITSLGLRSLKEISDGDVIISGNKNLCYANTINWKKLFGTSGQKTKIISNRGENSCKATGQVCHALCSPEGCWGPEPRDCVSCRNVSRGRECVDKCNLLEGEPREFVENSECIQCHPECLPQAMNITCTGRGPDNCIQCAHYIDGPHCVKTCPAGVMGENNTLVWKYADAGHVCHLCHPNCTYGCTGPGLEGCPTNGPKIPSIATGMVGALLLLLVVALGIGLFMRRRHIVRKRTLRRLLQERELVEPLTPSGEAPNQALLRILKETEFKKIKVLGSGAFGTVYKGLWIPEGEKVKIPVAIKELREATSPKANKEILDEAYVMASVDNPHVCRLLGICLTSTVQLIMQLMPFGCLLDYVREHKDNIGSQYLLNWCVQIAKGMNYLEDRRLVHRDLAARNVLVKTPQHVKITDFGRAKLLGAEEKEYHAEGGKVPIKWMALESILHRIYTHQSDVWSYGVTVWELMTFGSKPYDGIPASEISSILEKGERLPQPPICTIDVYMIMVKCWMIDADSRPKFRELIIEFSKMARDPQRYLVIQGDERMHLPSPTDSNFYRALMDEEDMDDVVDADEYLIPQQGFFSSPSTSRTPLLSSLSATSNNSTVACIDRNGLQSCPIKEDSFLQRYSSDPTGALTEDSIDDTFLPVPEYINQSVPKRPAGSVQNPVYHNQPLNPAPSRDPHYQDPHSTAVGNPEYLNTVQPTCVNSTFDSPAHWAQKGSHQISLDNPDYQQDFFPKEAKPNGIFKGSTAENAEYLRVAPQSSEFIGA
T3 sequence (P00533 25-1210 L858R): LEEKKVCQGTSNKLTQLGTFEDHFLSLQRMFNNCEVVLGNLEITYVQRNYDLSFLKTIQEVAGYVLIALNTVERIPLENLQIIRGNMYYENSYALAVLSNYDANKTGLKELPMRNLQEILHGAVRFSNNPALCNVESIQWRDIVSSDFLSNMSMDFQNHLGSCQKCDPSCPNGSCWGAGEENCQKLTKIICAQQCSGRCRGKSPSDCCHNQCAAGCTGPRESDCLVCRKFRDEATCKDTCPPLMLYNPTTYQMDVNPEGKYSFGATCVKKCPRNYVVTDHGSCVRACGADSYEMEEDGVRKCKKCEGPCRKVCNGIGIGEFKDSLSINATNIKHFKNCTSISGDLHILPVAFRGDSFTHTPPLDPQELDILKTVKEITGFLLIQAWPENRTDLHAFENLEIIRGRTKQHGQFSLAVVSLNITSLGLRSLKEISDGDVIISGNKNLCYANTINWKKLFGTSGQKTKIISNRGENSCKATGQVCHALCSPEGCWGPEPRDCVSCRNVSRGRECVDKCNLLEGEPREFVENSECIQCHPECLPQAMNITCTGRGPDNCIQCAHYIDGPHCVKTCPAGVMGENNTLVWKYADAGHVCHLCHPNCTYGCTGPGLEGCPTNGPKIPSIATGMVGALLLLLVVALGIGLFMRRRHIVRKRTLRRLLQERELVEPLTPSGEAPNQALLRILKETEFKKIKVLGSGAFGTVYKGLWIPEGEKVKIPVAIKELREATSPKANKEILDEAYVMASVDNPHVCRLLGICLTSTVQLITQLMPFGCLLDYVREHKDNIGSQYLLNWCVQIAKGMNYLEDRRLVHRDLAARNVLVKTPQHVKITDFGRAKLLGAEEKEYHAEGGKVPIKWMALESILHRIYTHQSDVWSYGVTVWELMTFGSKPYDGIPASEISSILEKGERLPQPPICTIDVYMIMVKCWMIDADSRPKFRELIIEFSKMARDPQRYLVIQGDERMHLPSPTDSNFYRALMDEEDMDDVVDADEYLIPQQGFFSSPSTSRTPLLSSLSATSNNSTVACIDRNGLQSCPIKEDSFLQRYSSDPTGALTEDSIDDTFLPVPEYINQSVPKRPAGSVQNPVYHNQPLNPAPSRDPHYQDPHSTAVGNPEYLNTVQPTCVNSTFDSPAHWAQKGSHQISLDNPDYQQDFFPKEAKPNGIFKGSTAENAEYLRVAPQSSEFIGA
T4 sequence (P00533 with tags, fused parts or gaps DEL746-750 limits assumed): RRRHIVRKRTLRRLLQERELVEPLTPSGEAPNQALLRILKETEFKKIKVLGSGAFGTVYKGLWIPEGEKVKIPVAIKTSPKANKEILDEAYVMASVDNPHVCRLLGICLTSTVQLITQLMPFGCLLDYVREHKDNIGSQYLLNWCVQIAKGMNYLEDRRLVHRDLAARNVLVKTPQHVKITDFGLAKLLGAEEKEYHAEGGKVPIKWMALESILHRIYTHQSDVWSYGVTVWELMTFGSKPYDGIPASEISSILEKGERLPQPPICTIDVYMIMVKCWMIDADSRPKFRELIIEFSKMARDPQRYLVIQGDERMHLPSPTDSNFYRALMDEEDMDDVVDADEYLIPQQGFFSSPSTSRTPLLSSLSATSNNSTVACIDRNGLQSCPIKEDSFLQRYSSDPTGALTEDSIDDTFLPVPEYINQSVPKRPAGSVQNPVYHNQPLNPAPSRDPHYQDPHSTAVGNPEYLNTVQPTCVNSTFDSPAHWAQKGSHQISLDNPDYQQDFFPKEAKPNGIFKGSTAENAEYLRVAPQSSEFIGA
T5 sequence (P00533 with tags, fused parts or gaps DEL746-750/T790M limits assumed): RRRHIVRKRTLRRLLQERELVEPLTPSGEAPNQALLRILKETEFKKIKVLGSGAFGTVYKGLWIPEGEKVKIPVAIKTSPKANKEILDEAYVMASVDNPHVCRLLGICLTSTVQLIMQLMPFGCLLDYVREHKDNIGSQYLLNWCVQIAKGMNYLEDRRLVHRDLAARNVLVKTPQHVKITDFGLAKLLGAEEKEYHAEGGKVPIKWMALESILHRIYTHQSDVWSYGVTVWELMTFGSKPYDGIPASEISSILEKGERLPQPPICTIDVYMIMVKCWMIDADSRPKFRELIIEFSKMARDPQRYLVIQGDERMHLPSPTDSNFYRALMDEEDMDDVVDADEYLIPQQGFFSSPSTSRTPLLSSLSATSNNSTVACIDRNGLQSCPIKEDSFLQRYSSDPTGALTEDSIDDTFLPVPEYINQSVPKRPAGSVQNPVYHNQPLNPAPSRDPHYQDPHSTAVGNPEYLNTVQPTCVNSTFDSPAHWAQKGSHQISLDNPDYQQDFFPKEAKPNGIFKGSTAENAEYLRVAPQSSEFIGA
T2 sequence (P00533 669-1210 limits assumed): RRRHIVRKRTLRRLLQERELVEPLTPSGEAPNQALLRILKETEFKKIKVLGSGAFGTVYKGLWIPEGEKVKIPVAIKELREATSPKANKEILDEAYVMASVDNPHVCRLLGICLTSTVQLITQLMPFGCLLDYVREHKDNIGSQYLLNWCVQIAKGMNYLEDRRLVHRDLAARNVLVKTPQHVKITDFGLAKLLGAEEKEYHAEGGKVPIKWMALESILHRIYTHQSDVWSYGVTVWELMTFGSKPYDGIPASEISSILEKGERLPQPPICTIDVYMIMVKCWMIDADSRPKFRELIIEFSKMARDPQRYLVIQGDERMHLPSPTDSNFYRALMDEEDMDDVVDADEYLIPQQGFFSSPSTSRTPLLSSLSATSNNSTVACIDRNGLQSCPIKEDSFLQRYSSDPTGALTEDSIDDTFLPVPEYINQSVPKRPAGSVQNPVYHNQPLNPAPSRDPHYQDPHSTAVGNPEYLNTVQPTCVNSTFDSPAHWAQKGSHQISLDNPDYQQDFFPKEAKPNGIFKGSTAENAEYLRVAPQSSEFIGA

For the compound `C=C1c2c(-c3cnc4ccccc4c3)c3c(N)ncnc3n2C[C@H]1NC(=O)C=CC` (mixture of isomers) [Example 3, (S)—N-(4-amino-6-methylene-5-(quinolin-3-yl)-7,8-dihydro-6H -pyrimido[5,4-b]pyrrolizin-7-yl)but-2-enamide], the half-maximal inhibitory concentration (IC50) in experiment [1] was 6.1 nM; in experiment [3] it was 110 nM; in experiment [5], 15 nM; in experiment [7], 7.6 nM; in experiment [8], 1.8 nM. Besides, the values for the GI50 in experiment [2], in experiment [4] and in experiment [6] were > 10000 nM, 560 nM and 16 nM, respectively.
Take `Nc1ncnc2c1c(-c1cccc(NC(=O)c3ccccc3)c1)c1n2CCCC1` [Comparative Example 1, N-(3-(4-amino-6,7,8,9-tetrahydropyrimido[5,4-b]indolizin-5-yl)phenyl)benzamide, reference compound]: the “inhibitory activity against EGFR kinases (in words)” value in experiment [1] (summary for EGFR (L858R), (d746-750), (T790M/L858R), (d746-750/T790M), for the comparative compound all EGFR kinases tested) is on record as “almost no inhibitory activity”.
With `C=CC(=O)N[C@@H]1Cn2c(c(-c3cnc4ccccc4c3)c3c(N)ncnc32)C1=C` [Example 1, (S)—N-(4-amino-6-methylene-5-(quinolin-3-yl)-7,8-dihydro-6H-pyrimido[5,4-b]pyrrolizin-7-yl)acrylamide], the half-maximal inhibitory concentration (IC50) is < 0.5 nM in experiment [1]; 0.7 nM in experiment [3]; < 0.5 nM in experiment [5]; < 0.15 nM in experiment [7]; < 0.15 nM in experiment [8]. The GI50 in experiment [2] stood at 370 nM; in experiment [4] it was 9 nM; in experiment [6] it was 1.9 nM.
For `C=CC(=O)N[C@H]1Cn2c(c(-c3cnc4ccccc4c3)c3c(N)ncnc32)C1=C` [Example 25, (R)—N-(4-amino-6-methylene-5-(quinolin-3-yl)-7,8-dihydro-6H-pyrimido[5,4-b]pyrrolizin-7-yl)acrylamide], the half-inhibitory concentration (IC50) in experiment [1] is 36 nM; in experiment [5] it was 100 nM; in experiment [7], 59 nM; in experiment [8] it was 11 nM. Also, the concentration for 50% growth inhibition (GI50) is > 10000 nM in experiment [2], 2500 nM in experiment [4] and 260 nM in experiment [6].
Regarding `C=CC(=O)N(C)[C@@H]1Cn2c(c(-c3cnc4ccccc4c3)c3c(N)ncnc32)C1=C` [Example 26, (S)—N-(4-amino-6-methylene-5-(quinolin-3-yl)-7,8-dihydro-6H-pyrimido[5,4-b]pyrrolizin-7-yl)-N-methylacrylamide], the half-maximal inhibitory concentration (IC50) in experiment [1] turned out to be 1 nM; in experiment [5], 1.7 nM; in experiment [7], 1.1 nM; in experiment [8] it was 0.31 nM. Also, the GI50 in experiment [2] worked out at 4700 nM; in experiment [4], 150 nM; in experiment [6] it was 18.4 nM.
Turning to `C=CC(=O)N[C@H]1C=Cc2c(-c3cnc4ccccc4c3)c3c(N)ncnc3n2C1` [Example 27, (S)—N-(4-amino-5-(quinolin-3-yl)-8,9-dihydropyrimido[5,4-b]indolizin-8-yl)acrylamide], the concentration for half-maximal inhibition (IC50) in experiment [1] was found to be 0.34 nM; in experiment [5] it was 0.35 nM; in experiment [7], 0.38 nM; in experiment [8] it was 0.25 nM. In addition, the concentration for 50% growth inhibition (GI50) in experiment [2] came out at 1000 nM; in experiment [4], 110 nM; in experiment [6], 15 nM.
Turning to `C=CC(=O)N[C@H]1C=Cc2c(-c3cnc4ccccc4c3)c3c(N)ncnc3n2CC1` [Example 28, (R)—N-(4-amino-5-(quinolin-3-yl)-9,10-dihydro-8H-pyrimido[5′,4′:4,5]pyrrolo[1,2-a]azepin-8-yl)acrylamide], the concentration for half-maximal inhibition (IC50) is 0.3 nM in experiment [1], 0.49 nM in experiment [5], 0.27 nM in experiment [7] and < 0.5 nM in experiment [8]. Further, the GI50 in experiment [2] came to 1200 nM; in experiment [4], 48 nM; in experiment [6], 14 nM.
Consider `C=CC(=O)N[C@H]1CC(C)c2c(-c3cnc4ccccc4c3)c3c(N)ncnc3n2C1` (stereo partly shown) [Example 29], for which the IC50 is 14 nM in experiment [1], 19 nM in experiment [5], 21 nM in experiment [7] and 8.4 nM in experiment [8]. The GI50 was > 10000 nM in experiment [2], 1600 nM in experiment [4] and 89 nM in experiment [6].

The IC50 is the concentration that gives 50% inhibition. A lower IC50 goes with greater potency. The term GI50 denotes the concentration that inhibits growth by half. High values mean lower sensitivity of the cells, low ones greater sensitivity of the cells.

These data come from patent US9758526B2, “Quinoline-substituted compound” (TAIHO PHARMACEUTICAL CO., LTD., priority 2013, dated 2017).
